Legend:
[1] = test system: K562 chronic myelogenous leukemia cells; experiment: MTT assay, in vitro inhibitory activity on cells; assay type: cell-based
Description: (§1) In this example, MTT assay was used to detect in vitro inhibitory activity of the compounds prepared according to the above examples on the cells. […] AP24534 was purchased from Shanghai Xinkuo Chemical Technology Co., Ltd., China.
(§2) Dimethyl sulfoxide (DMSO) is capable of dissolving formazan in cells, and absorbance value can be measured at a wavelength of 490 nm by an enzyme-linked immunometric meter, which reflects the number of living cells. Within a certain range of the number of cells, the amount of MTT crystals formed is proportional to the number of living cells.
(§3) 1. […] 2. Culturing in a 37° C., 5% CO2 incubator and keeping the cells adhering to the wall of the well. 3. […] 4. Carefully removing the supernatant, gently washing with PBS and discarding the supernatant again. 5. […] 6. Terminating culturing and carefully discarding the medium in each well. 7. Adding 150 μl dimethyl sulfoxide into each well, shaking for 10 minutes at low speed in a shaker, to make crystals fully dissolved. 8. Measuring the absorbance of each well at 490 nm by an enzyme-linked immunometric meter. 9. Calculating IC50 values.

[2] = test system: MDA-MB-231 human breast cancer cells; experiment: MTT assay, in vitro inhibitory activity on cells; assay type: cell-based; conditions: typically 48 hours
Description: as §1, §2, §3

[3] = test system: Ovcar-3 human ovarian cancer cells; experiment: MTT assay, in vitro inhibitory activity on cells; assay type: cell-based; conditions: typically 48 hours
Description: as §1, §2, §3

[4] = test system: Saos-2 human osteosarcoma cells; experiment: MTT assay, in vitro inhibitory activity on cells; assay type: cell-based; conditions: typically 48 hours
Description: as §1, §2, §3

Human ABL1 (T315I) = target: T1, Human ABL1 (T315I) (Homo sapiens, UniProt P00519, T315I); experiment: ABL1 (T315I) kinase activity, [γ-33P] ATP / Abltide radiometric assay; assay type: biochemical; conditions: ATP 1.0 μM, 120 minutes, room temperature
T1 construct: purchased Millipore Corporation, USA #14-522
Experimental: Kinase activity was determined according to the manufacturer's instructions. Peptide substrate is Abltide ([…]), purchased from Millipore Corporation, USA. Ion exchange chromatography paper P81 was purchased from Whatman Company, UK. [γ-33P] ATP was purchased from Perkin Elmer Company.
[γ-33P] ATP was added at room temperature, with final concentration of 1.0 μM, and the reaction was performed for 120 minutes. 20 μl aliquots were transferred onto the ion exchange chromatography paper P81. The paper was thoroughly washed with a 0.75% phosphoric acid solution three times, and then washed with acetone once. Finally, γ-33P radioactivity was measured.

[5] = test system: MEG-01 human megakaryocyte leukemia cells; experiment: CellTiter-Glo cell viability assay on Bcr-Abl-positive cells; assay type: cell-based; conditions: 72 hours
Experimental: Each compound was dissolved in DMSO to 10 mM, diluted to 50 μM with complete medium, and then diluted to 10 μM with 0.1% DMSO in complete medium. The resulting solution was 10-fold serially diluted and formulated into 10 concentrations.
MEG-01 human megakaryocyte leukemia cells and KU812 human peripheral blood basophilic leukocytes, purchased from ATCC Company, USA.
6) Calculating cell viability (Cell Viability)=(RLUsample/RLUnegative)×100%, wherein RLUsample was RLU (Relative Light Units) value of the well added with the compound and RLUnegative was RLU value of the well without the compound (that is, cell control, which was treated with the same concentration of DMSO). Data were processed by using a four-parameter logistic fitting module in Graphpad Prism 4.0 software to calculate IC50.

[6] = test system: KU812 human peripheral blood basophilic leukocytes; experiment: as above; conditions: KU812, 72 h, read-out: IC50 KU812
[7] = Homo sapiens, K562, 48 h, typically 48 hours

SMILES	IC50 [2] [nM]	IC50 [3] [µM]	IC50 [4] [nM]	IC50 [1, 7] [nM]	IC50 (Human ABL1 (T315I)) [nM]	IC50 [5] [nM]	IC50 ([1]; typically 48 hours) [nM]	IC50 ([1]; Homo sapiens, K562, typically 48 hours) [nM]	IC50 [6] [nM]
Cc1ccc(C(=O)Nc2ccc(CN3CCN(C)CC3)c(C(F)(F)F)c2)cc1C#Cc1cnc2cccnn12 [AP24534, reference compound]	420	1.21	380	–	–	–	–	4800	–
Cc1ccc(C(=O)Nc2ccc(CN3CCN(C)CC3)c(C(F)(F)F)c2)cc1C#Cc1cccc2[nH]nc(N)c12 [Example 1, 3-(3-amino-1H-indazol-4-yl)ethynyl-4-methyl-N-[4-(4-methylpiperazin-1-yl)methyl-3-trifluoromethylphenyl]benzamide]	–	–	–	1870	6.48	–	–	–	–
Cc1ccc(C(=O)Nc2ccc(CN3CCN(C)CC3)c(C(F)(F)F)c2)cc1C#Cc1ccc2cncnc2c1 [Example 3, 3-((quinazolin-7-yl)ethynyl)4-methyl-N-[4-((4-methylpiperazin-1-yl)methyl)-3-trifluoromethylphenyl]benzamide]	2450	4.47	1070	1340	4.51	–	–	–	–
Cc1ccc(C(=O)Nc2ccc(CN3CCN(C)CC3)c(C(F)(F)F)c2)cc1C#Cc1cccc2ncncc12 [Example 4, 3-((quinazolin-5-yl)ethynyl)-4-methyl-N-[4-((4-methylpiperazin-1-yl)methyl)-3-trifluoromethylphenyl]benzamide]	1300	6.23	1590	2440	2.3	–	–	–	–
Cc1ccc(C(=O)Nc2ccc(CN3CCN(C)CC3)c(C(F)(F)F)c2)cc1C#Cc1cc(F)c2cnc(N)nc2c1 [Example 5, 3-((5-fluoro-2-aminoquinazolin-7-yl)ethynyl)-4-methyl-N-[4-((4-methylpiperazin-1-yl)methyl)-3-trifluoromethylphenyl]benzamide]	6710	6.52	310	2120	–	–	–	–	–
CNc1ncc2ccc(C#Cc3cc(C(=O)Nc4ccc(CN5CCN(C)CC5)c(C(F)(F)F)c4)ccc3C)cc2n1 [Example 6, 3-((2-methylaminoquinazolin-7-yl)ethynyl)-4-methyl-N-[4-((4-methylpiperazin-1-yl)methyl)-3-trifluoromethylphenyl]benzamide]	7890	8.26	2100	730	–	–	–	–	–
CNc1ncc2c(F)cc(C#Cc3cc(C(=O)Nc4ccc(CN5CCN(C)CC5)c(C(F)(F)F)c4)ccc3C)cc2n1 [Example 7, 3-((5-fluoro-2-methylaminoquinazolin-7-yl)ethynyl)-4-methyl-N-[4-((4-methylpiperazin-1-yl)methyl)-3-trifluoromethylphenyl]benzamide]	4140	2.35	4700	670	–	–	–	–	–
Cc1ccc(C(=O)Nc2ccc(CN3CCN(C)CC3)c(C(F)(F)F)c2)cc1C#Cc1ccc2c(=O)[nH]cnc2c1 [Example 9, 3-((4-oxo-3,4-dihydroquinazolin-7-yl)ethynyl)-4-methyl-N-[4-((4-methylpiperazin-1-yl)methyl)-3-trifluoromethylphenyl]benzamide]	–	–	–	5340	5.8	1.49	–	–	0.518

The next lines start with results.

IC50 [2] [nM]	IC50 [3] [µM]	IC50 [4] [nM]	IC50 [1, 7] [nM]	IC50 (Human ABL1 (T315I)) [nM]	IC50 [5] [nM]	IC50 ([1]; typically 48 hours) [nM]	SMILES	IC50 ([1]; Homo sapiens, K562, typically 48 hours) [nM]	IC50 [6] [nM]
2790	4.72	1790	900	–	–	–	Cc1ccc(C(=O)Nc2ccc(CN3CCN(C)CC3)c(C(F)(F)F)c2)cc1C#Cc1ccc2cnc(N)nc2c1 [Example 11, 3-((2-aminoquinazolin-7-yl)ethynyl)-4-methyl-N-[4-((4-methylpiperazin-1-yl)methyl)-3-trifluoromethylphenyl]benzamide]	–	–
–	–	–	280	31.7	–	–	CNc1ncnc2cc(C#Cc3cc(C(=O)Nc4ccc(CN5CCN(C)CC5)c(C(F)(F)F)c4)ccc3C)ccc12 [Example 12, 3-((4-methylaminoquinazolin-7-yl)ethynyl)-4-methyl-N-[4-((4-methylpiperazin-1-yl)methyl)-3-trifluoromethylphenyl]benzamide]	–	–
–	–	–	4120	9.5	3.56	–	Cc1ccc(C(=O)Nc2ccc(CN3CCN(C)CC3)c(C(F)(F)F)c2)cc1C#Cc1ccc2c(N)ncnc2c1 [Example 13, 3-((4-aminoquinazolin-7-yl)ethynyl)-4-methyl-N-[4-((4-methylpiperazin-1-yl)methyl)-3-trifluoromethylphenyl]benzamide]	–	1.17
–	–	–	7030	12.4	–	–	Cc1ccc(C(=O)Nc2ccc(CN3CCN(CCO)CC3)c(C(F)(F)F)c2)cc1C#Cc1cccc2ncncc12 [Example 16, 3-((quinazolin-5-yl)ethynyl)-4-methyl-N-[4-((4-(2-hydroxyethyl)piperazin-1-yl)methyl)-3-trifluoromethylphenyl]benzamide]	–	–
–	–	–	–	21.7	–	470	Cc1ccc(C(=O)Nc2ccc(CN3CC[C@@H](N(C)C)C3)c(C(F)(F)F)c2)cc1C#Cc1cccc2ncncc12 [Example 18, 3-((quinazolin-5-yl)ethynyl)-4-methyl-(R)—N-[4-((3-(dimethylamino)pyrrolidin-1-yl)methyl)-3-trifluoromethylphenyl]benzamide]	–	–
–	–	–	1140	43.5	–	–	Cc1cn(-c2cc(NC(=O)c3ccc(C)c(C#Cc4cccc5ncncc45)c3)cc(C(F)(F)F)c2)cn1 [Example 20, 3-((quinazolin-5-yl)ethynyl)-4-methyl-N-[3-(4-methyl-1H-imidazol-1-yl)-5-trifluoromethylphenyl]benzamide]	–	–
–	–	–	3310	24.3	–	–	Cc1ccc(C(=O)Nc2ccc(CN3CCC(N(C)C)CC3)c(C(F)(F)F)c2)cc1C#Cc1ccc2nccnc2c1 [Example 21]	–	–
–	–	–	2840	6	–	–	Cc1ccc(C(=O)Nc2ccc(CN3CCN(C)CC3)c(C(F)(F)F)c2)cc1C#Cc1ccc2nccnc2c1 [Example 23]	–	–
–	–	–	1090	–	–	–	Cc1ccc(NC(=O)Nc2ccc(CN3CCN(C)CC3)c(C(F)(F)F)c2)cc1C#Cc1ccc2cncnc2c1 [Example 31]	–	–
2110	6.97	2130	660	–	–	–	Cc1ccc(NC(=O)Nc2ccc(CN3CCN(C)CC3)c(C(F)(F)F)c2)cc1C#Cc1cccc2[nH]nc(N)c12 [Example 32, N-[3-((3-amino-1H-indazol-4-yl)ethynyl)-4-methyl]phenyl-N′-[4-((4-methylpiperazin-1-yl)methyl)-3-trifluoromethylphenyl]urea]	–	–

Reference: patent US20150152088A1, “ALKYNYL HETEROAROMATIC COMPOUND AND USE THEREOF” (Nanjing Sanhome Pharmaceutical Co., Ltd., priority 2012, published 2015)
